How the values were obtained:
[1] = tested on: rabbit calvaria; experiment: Rabbit calvarial vertical onlay graft model; assay type: in vivo, New Zealand white rabbits; details: eight weeks, CL144 10 μΜ or rhBMP‐2 3.85 μΜ soaked on BCP carrier
Protocol: Total six male, New Zealand white rabbits, weighing ≈2.8–3.2 kg were used for the rabbit calvaria onlay graft model. Rabbits were kept in separate cages under standard laboratory conditions with free access to food and water and provided standard meals according to the ARRIVE guidelines. The animals were sacrificed eight weeks postoperatively (n = 6), and each rabbit was divided into three different groups. […] General anesthesia was induced by injecting 65 mg kg^−1 ketamine (Ketalar, Yuhan, Korea) and xylazine (Rompun, Bayer, Korea). A full‐thickness flap was raised under local anesthesia with 2% lidocaine and 1:100 000 epinephrine to expose the calvarial bone. Slits around the sagittal suture were prepared using a trephine bur (7 mm in diameter, 1 mm in depth), and then four perforations of the external cortical bone plate were made. […]
‐Radiographic analysis: A single‐blinded examiner conducted all the measurements. […] The volume of the newly formed bone within the cylinders was measured.
The embedding paraffin blocks were then sectioned into 4 µm thick slices and stained with Masson trichrome. […] Within the cylinder, the total augmented area, area and proportion of newly formed bone, and residual graft materials were measured as previously described.^[ [34] ^]

[2] = tested on: p53; experiment: p53 level by western blot in hBMSCs; assay type: cell-based, human; details: 0.1 µM to 10 µM
Protocol: Human Bone Marrow‐derived Mesenchymal Stem Cells (hBMSCs) were provided by Professor Lee's laboratory, and cells from passages four to nine were used for all experiments. hBMSCs were cultured in alpha‐minimum essential medium (Welgene, LM008‐01) supplemented with 10% Fetal Bovine Serum (FBS) (Gibco, US origin, 16000–044) and 1% penicillin/streptomycin (Gibco, 15140‐122).
After discarding the medium and washing the cells twice with cold dPBS, the cells were collected using a scraper and lysed using RIPA buffer (GenDEPOT, R4200‐010) containing protease and phosphatase inhibitors (GenDEPOT, P3200‐001). The collected samples were centrifuged at 13 200 rpm for 10 min at 4 °C, and the supernatant containing total protein was collected. SDS‐PAGE gels (10–12%) were prepared, and protein samples were mixed with 5X loading buffer containing reducing agent (Biosesang, S2002) and heated at 98 °C for 5 min. Equal amounts of protein samples were loaded onto a gel, separated by electrophoresis, and transferred onto nitrocellulose membranes using a Dry Transfer Stacks Kit (Invitrogen, IB23001). The membrane was blocked with 5% nonfat milk in 1X TBST for 1 h at room temperature to prevent nonspecific binding. The membranes were incubated with primary antibodies specific to the target proteins overnight at 4 °C with gentle shaking. […]

[3] = tested on: EGFP‐MDM2; experiment: EGFP-MDM2 fluorescence / live imaging degradation assay; assay type: cell-based
Protocol: HeLa cells were cultured in DMEM (Welgene, LM001‐05) supplemented with 10% FBS (Welgene, S001‐07). For transient transfection, the cells were seeded at ≈70% confluence. The following day, transfection was performed using Lipofectamine 3000 (Invitrogen, L3000015) for 24 h according to the manufacturer's protocol. The cells were transfected with 100 ng of EGFP‐MDM2 per well in the 96‐well plate and were transfected with 2 µg of MDM2 WT and 2 µg of HA‐ubiquitin, total 4 µg per well in the 6‐well plate.
To construct the EGFP‐MDM2 plasmid DNA, MDM2 WT was amplified by PCR using specific primers. The PCR products were digested with BamH1 and EcoR1 to generate compatible ends. The plasmid backbone, EGFP‐C1, previously digested with the same enzyme, was ligated into the digested PCR product using T4 ligase (Biolabs, M0202S). The resulting plasmid construct was confirmed using restriction enzyme digestion and DNA sequencing. MDM2 WT (#16233) and HA‐ubiquitin (#18712) were purchased from Addgene (used primer sequences, see Table S2, Supporting Information).
Real‐time Live cell imaging (phase contrast, EGFP fluorescence) was performed to monitor EGFP‐MDM2 intensity at 7 min intervals after compound treatment using Cytation5 (Agilent) laser autofocus conditions to capture EGFP fluorescence to assess intensity. For fluorescence imaging, the cells were fixed using 4% PFA and washed three times with 1X dPBS. Fluorescence imaging was performed using the Cytation5. The intensity of fluorescence was assessed by tracking the fluorescence of individual cells in each image using the Time‐lapse analyzer or ROI measure feature of the Fiji ImageJ software (Version 1.54 h, USA).

[4] = tested on: bone marrow; experiment: Immunohistochemistry of femur bone marrow in the OVX model; assay type: in vivo; details: OVX mice femur
Protocol: ‐Immunohistochemistry: Decalcified femurs were fixed in 4% paraformaldehyde (PFA) at 4 °C for 24 h, rinsed three times with phosphate‐buffered saline (PBS), and decalcified in 12.5 mM EDTA (pH 8.0) for 14 days. The specimens were dehydrated through a graded ethanol series (70%, 80%, 95%, 100%) and embedded in paraffin. Longitudinal sections (3 µm thick) were prepared using a microtome, mounted on glass slides, and dried at 55 °C. For deparaffinization, slides were treated with xylene (four 5‐min treatments) and rehydrated through descending ethanol concentrations (100%, 95%, 80%, 70%) in 2‐min intervals. Immunohistochemistry was performed with a ready‐to‐use IHC/ICC kit (BioVision, Inc.). Sections were incubated overnight at room temperature with primary antibodies (1:100) against MDM2, p53, Bcl‐2, and cleaved caspase‐3, followed by a 20‐min incubation with HRP‐conjugated anti‐mouse IgG polymer. After PBS washes, antigen‐antibody complexes were visualized using 3,3′‐diaminobenzidine (DAB) for 10 min, and sections were counterstained with hematoxylin for 1 minute. The stained sections were imaged using a Slide Scanner (Zeiss, Germany).

[5] = tested on: hBMSCs; experiment: Alizarin Red S (ARS) staining of hBMSCs under osteogenic differentiation; assay type: cell-based, human; details: osteogenic differentiation conditions
Protocol: To induce osteogenic differentiation, the cells were seeded in confluent plates and cultured in osteogenic induction medium the following day. The differentiation medium was prepared by adding 10 mM β‐glycerophosphate (Sigma‐Aldrich, G9422), 50 µM ascorbic acid (Sigma‐Aldrich, A4403), and 0.1 µM dexamethasone (Sigma‐Aldrich, D4902) to the culture medium. The cells were treated with MDM2 inhibitors, Nutlin‐3 (Sigma‐Aldrich, N6787) or CL144 in an osteoinductive medium and incubated for 10–14 days to induce osteogenic differentiation. The differentiation medium was changed every 2–3 days (The list of MDM2 inhibitors used is shown in Figure 1A and presented in Table S1, Supporting Information).
Following osteogenic differentiation for the indicated number of days, the cells were fixed in 70% ethanol for 3 min at room temperature or in 4% PFA (Tech & Innovation, BPP‐9004) for 30 min at room temperature, washed with distilled water, and stained with 2% Alizarin Red S (Sigma‐Aldrich; pH 4.2, A5533) for 30 min.

## COc1ccc(C2=N[C@H](c3ccc(Cl)cc3)[C@H](c3ccc(Cl)cc3)N2C(=O)N2CCN(CC(=O)NCCCCCCCCOc3cccc4c3C(=O)N(C3CCC(=O)NC3=O)C4=O)C(=O)C2)c(OC(C)C)c1 (stereo in doubt) [CL144]
[1]
  amount of new bone (histomorphometric analysis): 25.58 ± 11.70%
[2]
  p53 levels: elevated p53 levels in a dose‐dependent manner
[3]; 1 µM
  EGFP‐MDM2 maximal degradation efficacy: 84%
[3]; EGFP‐MDM2 expressing cells, 1 nM to 50 µM, n = 3
  Dmax (EGFP signal intensity): 1 μΜ
[3]; EGFP‐MDM2 expressing cells, 1 nM to 50 µM, n = 3, read-out: DC50 (EGFP signal intensity)
  DC50: 250 nM
[3]; live imaging, 0.01 to 10 µM
  concentration at which maximum degradation efficiency was achieved: 10 µM
[3]; live imaging, treatment for 4 h
  nuclear EGFP signal: almost completely turned off the nuclear EGFP signal
[4]; IHC
  expression of apoptosis markers Bcl‐2 or cleaved caspase‐3 (bone marrow toxicity): no corresponding increase
[4]; compared to Con and DMSO group
  MDM2 expression (IHC): effectively reduced MDM2 expression
  p53 expression (IHC): significantly increased p53 expression
[5]
  biomineralization / osteogenic potency (ARS staining): significantly enhanced biomineralization

— article PMC12097015, “Development of MDM2‐Targeting PROTAC for Advancing Bone Regeneration” (Advanced Science, 2025)
